Twelve molecules from patent publication US10604514B2, “6-(5-membered heteroaryl)isoquinolin-3-yl carboxamides and preparation and use thereof” (Samumed, LLC, priority 2017, dated 2020) can be followed below.

The subject of one test is IL-6. Kind of test: IL-6 inhibition in LPS-stimulated human peripheral blood mononuclear cells (HTRF). Format: cell-based. As to conditions: Homo sapiens, PBMC; IL-6, LPS-stimulated huPBMCs, HTRF. Here is the method: Fresh Normal PB MNC (Catalog # PB001, AllCells, Alameda, Calif.) were shipped overnight at 4° C. and resuspended in Roswell Park Memorial Institute (RPMI) 1640 Medium, with GlutaMAX Supplement (Catalog #61870127, ThermoFisher Scientific, Waltham, Mass.) supplemented with 1% Penicillin-Streptomycin (Catalog #151401633 ThermoFisher Scientific, Waltham, Mass.) and 1% fetal bovine serum (FBS) (Catalog #16140089, ThermoFisher Scientific, Waltham, Mass.) assay media.
Fresh normal human peripheral blood mononuclear cells (huPBMCs) were resuspended in 1% FBS-RPMI assay media with 1% Penicillin-Streptomycin 1% to a cell concentration of 1×10e6 cells/mL. Each compound was dissolved in DMSO (Catalog # D8418-100 ml, Sigma-Aldrich, St. Louis, Mo.) as a 10 mM stock and used to prepare compound source plates. Serial dilution (1:3, 10-point dose-response curves starting from 10 μM) and compound transfer was performed using the ECHO 550 (Labcyte, Sunnyvale, Calif.) into 384-well white Proxiplate-Plus assay plates (Catalog #6008289, PerkinElmer, Shelton, Conn.) with appropriate DMSO backfill for a final DMSO concentration of 0.25%. huPBMCs were plated at 5000 cells/well in the 384-well Proxiplate-Plus assay plates and incubated at 37° C.-5% CO2 for 2 hours. 50 ng/mL of Lipopolysaccharides from Escherichia coli 0111:B4 (Catalog # L5293-2 ML, Sigma-Aldrich, St. Louis, Mo.) was added after 2 hours and cells were incubated for another 22 hours at 37° C.-5% CO2. After 22 hour incubation, a mixture of anti-IL6 XL665 and anti-IL-6 Cryptate diluted in reconstitution buffer (Catalog #62IL6PEC, Cisbio Inc., Bedford, Mass.) was added to each well. Following incubation for 3 hours at room temperature, Homogeneous Time-Resolved Fluorescence (HTRF) was measured using the Envision (Perkin Elmer, Shelton, Conn.) at 665 nm and […]. The ratio of fluorescence at 665 nm to 620 nm was used as a readout for IL-6 quantification. All samples were processed in duplicate. Readings were normalized to DMSO treated cells and normalized activities were utilized for EC50 calculations. EC50 was determined using software generated by Dotmatics Limited (Windhill Bishops Stortford Herts, UK) using the Levenberg-Marquardt 4 parameter fitting procedure with finite different gradients.
Background: TR-FRET usually uses a lanthanide donor and a delayed reading to cut background.

In test [1] the test system is LL29 cells (primary human fibroblasts derived from IPF patients), α-smooth muscle actin. As to the kind of experiment: Inhibition of fibrotic process: αSMA in TGF-β1-treated primary human fibroblasts from IPF patients (LL29 cells). Conditions: Homo sapiens, Fibroblast, 96 h; % αSMA-positive LL29 cells, TGF-β1 20 ng/mL, 4 days. Format: cell-based. An excerpt: Representative compounds were screened using primary human fibroblasts (derived from IPF patients) treated with TGF-β1 to determine their ability to inhibit the fibrotic process.
Primary human fibroblasts derived from IPF patients (LL29 cells) [^1Xiaoqiu Liu, et. al., “Fibrotic Lung Fibroblasts Show Blunted Inhibition by cAMP Due to Deficient cAMP Response Element-Binding Protein Phosphorylation”, Journal of Pharmacology and Experimental Therapeutics (2005), 315(2), 678-687; ^2Watts, K. L., et. al., “RhoA signaling modulates cyclin D1 expression in human lung fibroblasts; implications for idiopathic pulmonary fibrosis”, Respiratory Research (2006), 7(1), 88] were obtained from American Type Culture Collection (ATCC) and expanded in F12 medium supplemented with 15% Fetal Bovine Serum and 1% Penicillin/Streptomycin.
Each compound was dissolved in DMSO as a 10 mM stock and used to prepare compound source plates. Serial dilution (1:2, 11-point dose-response curves from […] to 0.94 nM) and compound transfer was performed using the ECHO 550 (Labcyte, Sunnyvale, Calif.) into 384-well clear bottom assay plates (Greiner Bio-One) with appropriate DMSO backfill for a final DMSO concentration of 0.1%. LL29 cells were plated at 1,500 cells/well in 70 μL/well F12 medium supplemented with 1% Fetal Bovine Serum. TGF-β1 (Peprotech; 20 ng/mL) was added to the plates to induce fibrosis (ref. 1 and 2 above). Wells treated with TGF-31 and containing DMSO were used as positive control, and cells with only DMSO were negative control. Cells were incubated at 37° C. and 5% CO2 for 4 days. Following incubation for 4 days, SYTOX green nucleic acid stain (Life Technologies [Thermo Fisher Scientific]) was added to the wells at a final concentration of 1 μM and incubated at room temperature for 30 min. Cells were then fixed using 4% formaldehyde (Electron Microscopy Sciences), washed 3 times with PBS followed by blocking and permeabilization using 3% Bovine Serum Albumin (BSA; Sigma) and 0.3% Triton X-100 (Sigma) in PBS. Cells were then stained with antibody specific to α-smooth muscle actin (αSMA; Abcam) (ref. 1 and 2 above) in 3% Bovine Serum Albumin (BSA; Sigma) and 0.3% Triton X-100 (Sigma) in PBS, and incubated overnight at 4° C. Cells were then washed 3 times with PBS, followed by incubation with Alexa Flor-647 conjugated secondary antibody (Life Technologies [Thermo Fisher Scientific]) and DAPI in 3% Bovine Serum Albumin (BSA; Sigma) and 0.3% Triton X-100 (Sigma) in PBS at room temperature for 1 hour. Cells were then washed 3 times with PBS and plates were sealed for imaging. αSMA staining was imaged by excitation at 630 nm and emission at 665 nm and quantified using the Compartmental Analysis program on the CellInsight CX5 (Thermo Scientific). Dead or apoptotic cells were excluded from analysis based on positive SYTOX green staining. % of total cells positive for αSMA were counted in each well and normalized to the average of 11 wells treated with TGF-β1 on the same plate using Dotmatics' Studies Software.

Test [2] has as its system Wnt activity (Sp5-Luc reporter in SW480 colon carcinoma cells). Kind of test: Wnt activity screening assay (Sp5-Luc reporter gene assay). As to conditions: Homo sapiens; for EC50: Sp5-Luc reporter, SW480 cells, 36 to 48 hours. Format: cell-based, human. An excerpt: The screening assay for Wnt activity is described as follows. Reporter cell lines can be generated by stably transducing cancer cell lines (e.g., colon cancer) or primary cells (e.g., IEC-6 intestinal cells) with a lentiviral construct that includes a Wnt-responsive promoter driving expression of the firefly luciferase gene.
SW480 colon carcinoma cells were transduced with a lentiviral vector expressing luciferase with a human Sp5 promoter consisting of a sequence of eight TCF/LEF binding sites. SW480 cells stably expressing the Sp5-Luc reporter gene and a hygromycin resistance gene were selected by treatment with 150 μg/mL of hygromycin for 7 days. These stably transduced SW480 cells were expanded in cell culture and used for all further screening activities. Each compound was dissolved in DMSO as a 10 mM stock and used to prepare compound source plates. Serial dilution (1:3, 10-point dose-response curves starting from 10 μM) and compound transfer was performed using the ECHO 550 (Labcyte, Sunnyvale, Calif.) into 384-well white solid bottom assay plates (Greiner Bio-One) with appropriate DMSO backfill for a final DMSO concentration of 0.1%. For Sp5-Luc reporter gene assays, the cells were plated at 4,000 cells/well in 384-well plates with a DMEM medium containing 1% fetal bovine serum, and 1% Penicillin-Streptomycin and incubated for 36 to 48 hours at 37° C. and 5% CO2. Following incubation, 15 μl of BriteLite Plus luminescence reagent (Perkin Elmer) was added to each well of the 384-well assay plates. The plates were placed on an orbital shaker for 2 min and then luminescence was quantified using the Envision (Perkin Elmer) plate reader. Readings were normalized to DMSO only treated cells, and normalized activities were utilized for EC50 calculations using the dose-response log (inhibitor) vs. response -variable slope (four parameters) nonlinear regression feature available in GraphPad Prism 5.0 (or Dotmatics).
A general note: In a reporter assay the amount or activity of a reporter protein is the signal.

For test [3], the system named is Tau phosphorylation at Ser396 (pSer396), SH-SY5Y cells. Kind of test: Tau phosphorylation at Ser396 (pSer396) in SH-SY5Y cells, ELISA/western blot.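 Further: cell lysates probed for reduced Tau pSer396 via ELISA (colorimetric) or western blot (chemiluminescence), both with one shared pSer396 antibody, EC50 for lowering phosphorylation.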 Format: cell-based, human. Background: In an ELISA, binding on a coated surface is turned into a signal by an enzyme label.
The subject of test [4] is SW480 colon carcinoma cells. Kind of test: Cell viability assay (CellTiter-Glo) in SW480 cells.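 Further: SW480 cells stably carrying an Sp5-luciferase TCF/LEF reporter, luminescent ATP signal as viability measure, DMSO-treated cells as control.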 Conditions: Homo sapiens, 96 h; cell viability, SW480 cells, four days, CellTiter-Glo. The class given is cell-based, human.
Description: Representative compounds were screened using the assay procedure to assess the effect on cell viability as described below.
For the Cell Viability Assays, the cells were plated at 2,000 cells/well in 384-well plates with a DMEM medium containing 1% fetal bovine serum, and 1% Penicillin-Streptomycin and incubated for four days hours at 37° C. and 5% CO2. Eight replicates of DMSO-treated cells served as controls and cells treated with compound were performed in duplicate.
After incubation, 10 μL of CellTiter-Glo (Promega) was added to each well allowed to incubate for approximately 12 minutes.
Dose-response curves were generated and EC50 concentration values were calculated using non-linear regression curve fit in the GraphPad Prism (San Diego, Calif.) or Dotmatics' Studies Software (Bishops Stortford, UK).
The mark [5] stands for this setting: Homo sapiens, SH-SY5Y cells, overnight (16-18 h), read-out: pSer396 Tau EC50.

Structures are written as SMILES. Like-named read-outs stand apart in the source and are kept apart here. Where only a bound is given, the exact number is not on record here.

One may read the EC50 as the concentration that produces a half-maximal response. Usually inhibition stands for the drop in the measured response relative to a control, in per cent. Turning to `[2H]C1([2H])OC([2H])([2H])C([2H])([2H])N(c2cc(C(=O)Nc3cc4cc(-c5cnc(C)n5C)ccc4cn3)ccn2)C1([2H])[2H]` [Compound 74, N-(6-(1,2-Dimethyl-1H-imidazol-5-yl)isoquinolin-3-yl)-2-(morpholino-d8) isonicotinamide], the EC50 was 1130 nM in the test with IL-6; 1250 nM in test [1]; above 10 µM in test [2]; above 10 µM in test [3] (setting [5]); 479 nM in test [4]. Further, in test [2] (SW480, read-out: percent inhibition at 10 μM), the inhibition at 10 µM came to 30.5%.

Take `COc1ccc2c(c1)[nH]c1c(C)nccc12` [Harmine, reference compound]: the EC50 in test [3] (Homo sapiens, SH-SY5Y, read-out: EC50 in the Tau assay) is above 10 µM.

Turning to `[2H]C1([2H])OC([2H])([2H])C([2H])([2H])N(c2cc(C(=O)Nc3cc4cc(-c5cncn5C)ccc4cn3)ccn2)C1([2H])[2H]` [Compound 76, N-(6-(1-Methyl-1H-imidazol-5-yl)isoquinolin-3-yl)-2-(morpholino-d8) isonicotinamide], the EC50 was 927 nM in the test on IL-6; 611 nM in test [1]; 3.36 µM in test [2]; above 10 µM in test [3] (setting [5]); 462 nM in test [4].

Turning to `[2H]c1c(NC(=O)C2CCN(CC(C)C)CC2)ncc2ccc(-c3cnn(C)c3)cc12` [Compound 6, 1-Isobutyl-N-(6-(1-methyl-1H-pyrazol-4-yl)isoquinolin-3-yl-4-d)piperidine-4-carboxamide], the concentration for a half-maximal effect (EC50) was 967 nM with IL-6; 132 nM in test [1]; 0.82 µM in test [2]; 0.103 µM in test [3] (setting [5]); 1240 nM in test [4].

As to `[2H]C1([2H])N(c2cc(C(=O)Nc3cc4cc(-c5cncn5C)ccc4cn3)ccn2)C([2H])([2H])C([2H])([2H])C([2H])([2H])C1([2H])[2H]` [Compound 75, N-(6-(1-Methyl-1H-imidazol-5-yl)isoquinolin-3-yl)-2-(piperidin-1-yl-d10) isonicotinamide], the EC50 in the test on IL-6 is 857 nM; in test [1], 450 nM; in test [2], 3.5 µM; in test [3] (setting [5]), above 10 µM; in test [4], 443 nM.

In the case of `[2H]C1([2H])N(c2cc(C(=O)Nc3cc4cc(-c5cnc(C)n5C)ccc4cn3)ccn2)C([2H])([2H])C([2H])([2H])C1([2H])[2H]` [Compound 77, N-(6-(1,2-Dimethyl-1H-imidazol-5-yl)isoquinolin-3-yl)-2-(pyrrolidin-1-yl-d8)isonicotinamide], the concentration giving a half-maximal response (EC50) was 1940 nM in the test on IL-6, 2150 nM in test [1], 3.35 µM in test [2] and above 10 µM in test [3] (setting [5]).

In the case of `[2H]C1([2H])CCC([2H])([2H])N1c1cc(C(=O)Nc2cc3cc(-c4cnc(C)n4C)ccc3cn2)ccn1` [Compound 73, N-(6-(1,2-Dimethyl-1H-imidazol-5-yl)isoquinolin-3-yl)-2-(pyrrolidin-1-yl-2,2,5,5-d4)isonicotinamide], the EC50 was 2070 nM with IL-6, 1710 nM in test [1], 2.06 µM in test [2] and above 10 µM in test [3] (setting [5]).

Turning to `[2H]C1([2H])CCC([2H])([2H])N1c1cc(C(=O)Nc2cc3cc(-c4cncn4C)ccc3cn2)ccn1` [Compound 79, N-(6-(1-methyl-1H-imidazol-5-yl)isoquinolin-3-yl)-2-(pyrrolidin-1-yl-2,2,5,5-d4)isonicotinamide], the concentration for a half-maximal effect (EC50) is 1340 nM in the test on IL-6; 572 nM in test [1]; 4.04 µM in test [2]; above 10 µM in test [3] (setting [5]); 464 nM in test [4].

In the case of `Cc1nnc(-c2cc(F)c3cnc(NC(=O)C4CCC(NCC(F)F)CC4)cc3c2)s1` (centres unmarked) [Compound 204], the EC50 in test [3] (setting [5]) is above 10 µM.

Turning to `[2H]C1([2H])N(c2cc(C(=O)Nc3cc4cc(-c5cncn5C)ccc4cn3)ccn2)C([2H])([2H])C([2H])([2H])C1([2H])[2H]` [Compound 78, N-(6-(1-Methyl-1H-imidazol-5-yl)isoquinolin-3-yl)-2-(pyrrolidin-1-yl-d8) isonicotinamide], the 50% effective concentration (EC50) is 1050 nM in the test on IL-6; 526 nM in test [1]; 3.73 µM in test [2]; above 10 µM in test [3] (setting [5]); 468 nM in test [4].

In the case of `CCN1/C(=C/C(C)=O)Sc2ccc(O)cc21` [Indy, reference compound], the EC50 in test [3] (control DYRK1A inhibitors, printed '>10 M' (μ probably lost), read-out: EC50 in the Tau assay) is above 10 µM.

As for `[2H]c1nc(NC(=O)c2ccnc(N3CCN(C(C)C)CC3)c2)cc2cc(-c3cnn(C)c3)ccc12` [Compound 9, 2-(4-Isopropylpiperazin-1-yl)-N-(6-(1-methyl-1H-pyrazol-4-yl)isoquinolin-3-yl-1-d)isonicotinamide], the EC50 in the test on IL-6 is 1870 nM; in test [1] it was 157 nM; in test [2], 0.036 µM; in test [3] (setting [5]), above 10 µM; in test [4], 106 nM.
